Common to all, as to assay type: biochemical
The target in experiment [1] is T1, R171C RIPK2 (Homo sapiens, UniProt O43353, R171C). Nature of the experiment: in vitro enzyme inhibition, % inhibition at […]. The following applies: 1 µM.
The target of experiment [2] is T2, receptor-interacting protein kinase 2 (RIPK2) (Homo sapiens, UniProt O43353). Nature of the experiment: in vitro enzyme inhibition, % inhibition at […]. The following applies: 1 µM.
For experiment [3], the target named is T2, receptor-interacting protein kinase 2 (RIPK2). Nature of the experiment: X-ray co-crystal structure ([…] Å); in vitro enzyme inhibition IC50.
Experiment [4] addresses T1, R171C RIPK2. Nature of the experiment: in vitro RIPK2 enzyme inhibition.
The target in experiment [5] is T1, R171C RIPK2. Nature of the experiment: in vitro enzyme inhibition, % inhibition at […]. Conditions: 5 µM.
The target in experiment [6] is T2, receptor-interacting protein kinase 2 (RIPK2). As to the kind of experiment: in vitro enzyme inhibition, % inhibition at […]. The following applies: 5 µM.
The target is the same in experiment [7]. As to the kind of experiment: in vitro enzyme inhibition, % inhibition at […]. Conditions: 0.5 µM.
Experiment [8] has the same target. Nature of the experiment: in vitro RIPK2 enzyme inhibition.

This is an account of results in publication PMC5819902, “Activation loop targeting strategy for design of receptor-interacting protein kinase 2 (RIPK2) inhibitors” (Bioorganic & Medicinal Chemistry Letters, 2018).

The IC50 is the concentration that inhibits the measured activity by half.

SMILES strings stand for the structures.

T1 sequence (O43353 whole entry R171C): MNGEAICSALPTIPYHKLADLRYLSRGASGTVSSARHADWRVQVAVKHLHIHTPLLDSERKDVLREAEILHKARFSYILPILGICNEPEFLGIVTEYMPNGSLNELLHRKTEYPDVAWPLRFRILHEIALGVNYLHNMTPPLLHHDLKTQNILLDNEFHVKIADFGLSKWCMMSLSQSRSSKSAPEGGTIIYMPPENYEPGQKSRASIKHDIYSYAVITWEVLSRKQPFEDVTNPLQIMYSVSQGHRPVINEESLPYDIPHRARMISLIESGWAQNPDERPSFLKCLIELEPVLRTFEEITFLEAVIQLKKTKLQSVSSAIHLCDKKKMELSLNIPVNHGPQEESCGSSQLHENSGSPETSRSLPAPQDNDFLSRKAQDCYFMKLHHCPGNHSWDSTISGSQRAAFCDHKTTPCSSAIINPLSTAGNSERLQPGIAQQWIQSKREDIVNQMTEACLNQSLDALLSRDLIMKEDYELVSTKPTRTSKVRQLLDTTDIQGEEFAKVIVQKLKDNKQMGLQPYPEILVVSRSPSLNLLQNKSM
T2 sequence (O43353 whole entry): as the sequence (O43353 whole entry R171C) above, with C171R counted along it

With `CNC(=O)c1cc(Oc2ccc(NC(=O)Nc3ccc(SCC(=O)OC)c(F)c3)c(F)c2)ccn1` [CSR36], on R171C RIPK2 [1], the “% Inhibition / R171C RIPK2” value came out at 92. Further, the “% Inhibition / RIPK2 WT” value in experiment [2] was found to be 94.

Turning to `CNC(=O)c1cc(Oc2ccc(NC(=O)Nc3ccc(SCC(=O)O)c(F)c3)c(F)c2)ccn1` [CSR35], the concentration for half-maximal inhibition (IC50) was 2.26 ± 0.11 µM in experiment [3] and 4.87 ± 0.96 µM against R171C RIPK2 [4].

`CNC(=O)c1cc(Oc2ccc(NC(=O)Nc3cccc(CC(=O)OC)c3)c(F)c2)ccn1` [CSR30]: the “% Inhibition / R171C RIPK2” value at R171C RIPK2 [5] worked out at 76. Besides, the “% Inhibition / RIPK2 WT” value in experiment [6] was 69.

Turning to `CNC(=O)c1cc(Oc2ccc(NC(=O)Nc3cccc(CC#N)c3)c(F)c2)ccn1` [CSR25], in experiment [7], the “% Inhibition / RIPK2 WT” value was found to be 43.

Take `CNC(=O)c1cc(Oc2ccc(NC(=O)Nc3cccc(C(C)(C)C(=O)O)c3)c(F)c2)ccn1` [CSR29]: the “% Inhibition / R171C RIPK2” value on R171C RIPK2 [5] came to 67.

`O=C(O)CSc1ccc(NC(=O)Nc2ccccc2F)cc1F` [CSR35F2] displayed an IC50 in experiment [8] of 13.2 ± 1.7 µM.
